Consider 1 compound from patent US20060269613A1, “Composition containing nanoparticles containing water-soluble basic drug encpsulated therein” (priority 2003, published 2006).

The nature of the data set: Ratio of lactone ring-closed TPT over time in 50% human plasma at 37° C. (HPLC). The data set is classed as in vitro ADME. The conditions noted are these: 50% human plasma diluted with PBS. As to the method:
Fifty μL of TPT-containing PLA particle formulation or 50 μL of aqueous TPT solution (0.3 mg/mL) containing 50 mg/mL of PEG-4000 and 50 mg/mL of mannitol was freeze-dried. This freeze-dried product (control) and the above-mentioned nanoparticles were each dissolved in 1 mL of 50% human plasma (diluted with PBS), and were incubated at 37° C. For the purpose of investigating the ratio of ring-opening of lactone ring of TPT with lapse of time, 100 μL was taken out from the incubated sample after 0 hour, 2 hours and 4 hours, and was added to 900 μL of methanol. Plasma protein was denatured while the equilibrium of TPT structure was maintained, and, then, the samples were centrifuged at 10000 rpm for 10 minutes so that protein components were precipitated, and, then, the concentration of lactone ring-opened TPT and that of lactone ring-closed TPT in supernatant were measured with HPLC. An aqueous solution of TPT (pH 3; phosphate*hydro-chloride buffer) was used for control.
(§1) Fifty μL of TPT-containing nanoparticle formulation or a 50 μL of aqueous TPT solution (0.3 mg/mL) containing 50 mg/mL of PEG-4000 and 50 mg/mL of mannitol was freeze-dried, and was dissolved in 1 mL of 50% human plasma (diluted with PBS), and were incubated at 37° C. For the purpose of investigating the ratio of ring-opening and ring-closing of lactone ring of TPT with lapse of time, 100 μL of incubated sample was taken out after 0 hour, 2 hours and 4 hours, and was added to 900 μL of methanol. Plasma protein was denatured while the equilibrium of TPT structure was maintained, and, then, the sample was centrifuged at 10000 rpm for 10 minutes so that protein components were precipitated, and, then, the concentration of lactone ring-opened TPT and that of lactone ring-closed TPT in supernatant were measured with HPLC. An aqueous solution of TPT (pH 3; phosphate*hydrochloride buffer) was used for control.
as §1, with “TPT-containing micellar” for “TPT-containing”, “or” for “or a”, “ring-closing” for “ring-closing of lactone ring”, “HPLC.” for “HPLC. An aqueous solution of TPT (pH 3; phosphate*hydrochloride buffer) was used for control.”
as §1, with “nanocapsule particle” for “nanoparticle”, “its freeze-dried product” for “a 50 μL of aqueous TPT solution (0.3 mg/mL) containing 50 mg/mL of PEG-4000 and 50 mg/mL of mannitol was freeze-dried, and”, “ring-closing” for “ring-closing of lactone ring”, “HPLC.” for “HPLC. An aqueous solution of TPT (pH 3; phosphate*hydrochloride buffer) was used for control.”

Turning to `CC[C@@]1(O)C(=O)OCc2c1cc1n(c2=O)Cc2cc3c(CN(C)C)c(O)ccc3nc2-1` [Control], the “ratio of ring-closed TPT in 50% human plasma, 0 Hour” value is, setting by setting: (Table 1 (Example 1)) 97.5%; (Table 2 (Example 2)) 98.8%; (Table 3 (Example 3)) 98.9%; (Table 4 (Example 5)) 98.2%. Further, the “ratio of ring-closed TPT in 50% human plasma, 2 Hours” value (from here on “ratio … in 50% human plasma, 2 Hours”) (Table 1 (Example 1)) amounted to 24.6%; the “ratio … in 50% human plasma, 2 Hours” value (Table 2 (Example 2)) turned out to be 20.8%; the “ratio … in 50% human plasma, 2 Hours” value (Table 3 (Example 3)) worked out at 18.6%; the “ratio … in 50% human plasma, 2 Hours” value (Table 4 (Example 5)) amounted to 14.4%. Moreover, the “ratio of ring-closed TPT in 50% human plasma, 4 Hours” value is, setting by setting: (Table 1 (Example 1)) 19.4%; (Table 2 (Example 2)) 13.4%; (Table 3 (Example 3)) 14.6%; (Table 4 (Example 5)) 11.9%.
